Data on one compound can be found in publication doi:10.64898/2026.08.16.745104v1, “C. elegans Dicer stacks with the RIG-I-like receptor DRH-1 to cleave dsRNA” (biorxiv, 2026).

Experiment [1] deals with T1, DCR-1 in the antiviral complex (AVC; DCR-1•DRH-1•RDE-4) (Caenorhabditis elegans, UniProt P34529).
T1 construct: three proteins co-expressed in Sf9 cells (baculovirus), StrepTrap and Superose 6 purified; ADP in DCR-1 helicase domain (Hel1/Hel2); with Dicer Related Helicase
As to the kind of experiment: cryo-EM structure, […] Å. The experiment is classed as binding. The conditions noted are these: helicase nucleotide pocket between Hel1 and Hel2; Mg2+; sample incubated with 5 mM ATP and 3'ovr 106-dsRNA, pH 7.5, 20 °C.

Experiment [2] concerns the target T2, DRH-1 in the antiviral complex (AVC; DCR-1•DRH-1•RDE-4) (Caenorhabditis elegans, UniProt G5EDI8).
T2 construct: three proteins co-expressed in Sf9 cells (baculovirus), StrepTrap and Superose 6 purified; two stacked DRH-1 helicases (DRH-1 and DRH-1*, the latter only helicase and CTD resolved); with Endoribonuclease dcr-1
In words: cryo-EM structure, […] Å. To be noted: ATP-binding pockets of both DRH-1 helicases (DRH-1 and DRH-1*); sample incubated with 5 mM ATP and 3'ovr 106-dsRNA, pH 7.5, 20 °C.

T1 sequence (P34529 whole entry, the tested form may be a part): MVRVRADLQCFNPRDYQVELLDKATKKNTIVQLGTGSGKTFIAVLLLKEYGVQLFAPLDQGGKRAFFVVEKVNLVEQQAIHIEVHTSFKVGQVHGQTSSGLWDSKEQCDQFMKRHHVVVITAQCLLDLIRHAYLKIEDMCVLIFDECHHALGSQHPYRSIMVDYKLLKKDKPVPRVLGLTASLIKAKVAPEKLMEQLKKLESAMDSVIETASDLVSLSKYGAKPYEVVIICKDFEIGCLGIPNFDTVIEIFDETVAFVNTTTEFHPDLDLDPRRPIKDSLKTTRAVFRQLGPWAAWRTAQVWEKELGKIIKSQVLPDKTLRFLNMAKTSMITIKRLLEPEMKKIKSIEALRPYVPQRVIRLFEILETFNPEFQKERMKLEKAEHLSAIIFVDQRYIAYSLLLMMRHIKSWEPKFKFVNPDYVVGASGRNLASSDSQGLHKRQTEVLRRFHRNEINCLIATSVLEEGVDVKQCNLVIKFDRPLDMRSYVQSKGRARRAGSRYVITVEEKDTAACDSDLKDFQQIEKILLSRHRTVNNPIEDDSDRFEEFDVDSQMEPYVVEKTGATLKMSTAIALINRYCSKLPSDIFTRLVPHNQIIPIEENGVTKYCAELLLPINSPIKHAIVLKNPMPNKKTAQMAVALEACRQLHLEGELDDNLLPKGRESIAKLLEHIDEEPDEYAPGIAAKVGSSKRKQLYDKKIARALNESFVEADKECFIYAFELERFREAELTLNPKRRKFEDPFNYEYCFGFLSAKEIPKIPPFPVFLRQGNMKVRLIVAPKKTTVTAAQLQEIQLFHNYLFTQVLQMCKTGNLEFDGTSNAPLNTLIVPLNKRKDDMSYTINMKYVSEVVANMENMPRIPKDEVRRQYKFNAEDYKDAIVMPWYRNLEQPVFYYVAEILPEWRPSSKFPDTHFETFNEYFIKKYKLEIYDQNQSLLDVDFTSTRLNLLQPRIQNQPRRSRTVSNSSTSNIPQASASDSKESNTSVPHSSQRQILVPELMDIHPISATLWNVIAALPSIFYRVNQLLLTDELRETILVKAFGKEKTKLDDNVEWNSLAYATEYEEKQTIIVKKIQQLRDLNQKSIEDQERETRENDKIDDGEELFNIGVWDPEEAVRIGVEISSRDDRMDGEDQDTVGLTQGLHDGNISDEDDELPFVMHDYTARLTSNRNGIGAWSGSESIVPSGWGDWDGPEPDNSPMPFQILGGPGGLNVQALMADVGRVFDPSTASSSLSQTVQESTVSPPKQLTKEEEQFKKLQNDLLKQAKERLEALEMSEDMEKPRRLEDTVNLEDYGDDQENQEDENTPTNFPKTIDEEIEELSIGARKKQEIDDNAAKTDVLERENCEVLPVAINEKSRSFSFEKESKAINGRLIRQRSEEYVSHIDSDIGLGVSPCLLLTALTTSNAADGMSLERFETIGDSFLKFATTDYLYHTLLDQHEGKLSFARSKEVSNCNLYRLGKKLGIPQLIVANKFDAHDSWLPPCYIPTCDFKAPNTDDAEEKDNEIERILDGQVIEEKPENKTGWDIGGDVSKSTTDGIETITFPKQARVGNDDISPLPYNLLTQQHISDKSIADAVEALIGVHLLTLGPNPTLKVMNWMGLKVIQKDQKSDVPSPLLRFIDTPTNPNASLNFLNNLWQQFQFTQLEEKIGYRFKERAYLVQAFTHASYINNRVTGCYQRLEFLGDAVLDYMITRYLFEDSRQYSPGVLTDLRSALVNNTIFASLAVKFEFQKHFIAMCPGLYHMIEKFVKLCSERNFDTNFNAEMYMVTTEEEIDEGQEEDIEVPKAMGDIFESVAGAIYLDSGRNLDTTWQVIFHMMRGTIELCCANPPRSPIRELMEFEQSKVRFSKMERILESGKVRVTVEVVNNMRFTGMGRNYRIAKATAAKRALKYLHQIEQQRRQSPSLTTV
T1 sequence (G5EDI8 1-1037 partner): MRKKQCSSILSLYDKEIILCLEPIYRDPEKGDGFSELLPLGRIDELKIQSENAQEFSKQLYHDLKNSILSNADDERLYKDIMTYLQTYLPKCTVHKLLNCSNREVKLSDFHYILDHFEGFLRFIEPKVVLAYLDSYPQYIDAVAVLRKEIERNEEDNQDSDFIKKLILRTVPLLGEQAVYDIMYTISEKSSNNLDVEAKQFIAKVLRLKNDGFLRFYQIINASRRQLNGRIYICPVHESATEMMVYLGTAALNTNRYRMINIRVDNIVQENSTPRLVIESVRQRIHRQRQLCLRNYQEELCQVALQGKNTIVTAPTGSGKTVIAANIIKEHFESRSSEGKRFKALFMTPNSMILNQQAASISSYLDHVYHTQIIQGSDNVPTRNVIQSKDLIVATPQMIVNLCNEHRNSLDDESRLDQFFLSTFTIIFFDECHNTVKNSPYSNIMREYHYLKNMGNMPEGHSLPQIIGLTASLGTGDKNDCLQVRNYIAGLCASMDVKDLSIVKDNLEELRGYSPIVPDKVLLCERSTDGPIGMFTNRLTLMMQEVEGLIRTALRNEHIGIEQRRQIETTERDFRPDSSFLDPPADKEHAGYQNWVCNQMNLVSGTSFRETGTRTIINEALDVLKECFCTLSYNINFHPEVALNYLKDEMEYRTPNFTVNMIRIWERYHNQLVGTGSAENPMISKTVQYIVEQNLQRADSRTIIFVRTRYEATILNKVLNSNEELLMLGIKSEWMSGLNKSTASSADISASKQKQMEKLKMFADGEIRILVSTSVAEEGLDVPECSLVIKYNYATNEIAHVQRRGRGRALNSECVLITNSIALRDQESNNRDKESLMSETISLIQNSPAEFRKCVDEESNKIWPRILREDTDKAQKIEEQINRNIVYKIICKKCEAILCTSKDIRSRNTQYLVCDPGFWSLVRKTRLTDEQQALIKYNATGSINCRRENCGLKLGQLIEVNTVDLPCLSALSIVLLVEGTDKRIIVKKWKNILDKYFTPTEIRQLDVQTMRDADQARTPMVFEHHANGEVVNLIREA
T1 sequence (G5EBF5 1-385 partner): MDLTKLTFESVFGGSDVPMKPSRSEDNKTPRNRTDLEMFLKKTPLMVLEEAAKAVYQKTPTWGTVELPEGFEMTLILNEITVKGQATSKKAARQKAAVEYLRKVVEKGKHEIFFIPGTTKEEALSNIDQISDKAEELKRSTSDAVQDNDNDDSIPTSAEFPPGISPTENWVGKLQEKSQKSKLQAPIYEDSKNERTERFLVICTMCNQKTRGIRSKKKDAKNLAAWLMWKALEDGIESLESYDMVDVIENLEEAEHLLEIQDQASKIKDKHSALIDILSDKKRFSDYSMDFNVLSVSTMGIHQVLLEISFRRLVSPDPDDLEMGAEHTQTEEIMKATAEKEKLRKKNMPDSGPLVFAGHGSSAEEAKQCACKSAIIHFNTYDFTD
T2 sequence (G5EDI8 1-1037): as the sequence (G5EDI8 1-1037 partner) above
T2 sequence (P34529 whole entry partner): as the sequence (P34529 whole entry, the tested form may be a part) above
T2 sequence (G5EBF5 1-385 partner): as the sequence (G5EBF5 1-385 partner) above

Turning to `Nc1ncnc2c1ncn2[C@@H]1O[C@H](COP(=O)(O)OP(=O)(O)O)[C@@H](O)[C@H]1O` [ADP], the “cryo-EM structure, 3.0 Å” value was “we modeled ADP within the conserved nucleotide-binding pocket of the DCR-1 helicase” in experiment [1] and “ADP was also present in the ATP-binding pockets of both DRH-1 helicases” in experiment [2].
